# Results published in patent publication US7402310B2, “Deoxyribonuclease, gene encoding same and use thereof” (priority 2001, dated 2008).
# T1: DLAD (Mus musculus, UniProt Q9QY48)
# T1 construct: These plasmids encode the mature proteins of DLAD and DNase II, respectively, wherein Myc and His-tags are added to their C termini; made in house; host or cells: HeLa S3 cells (human), transient transfection, Ni-NTA purification
# T1 sequence (Q9QY48 23-354): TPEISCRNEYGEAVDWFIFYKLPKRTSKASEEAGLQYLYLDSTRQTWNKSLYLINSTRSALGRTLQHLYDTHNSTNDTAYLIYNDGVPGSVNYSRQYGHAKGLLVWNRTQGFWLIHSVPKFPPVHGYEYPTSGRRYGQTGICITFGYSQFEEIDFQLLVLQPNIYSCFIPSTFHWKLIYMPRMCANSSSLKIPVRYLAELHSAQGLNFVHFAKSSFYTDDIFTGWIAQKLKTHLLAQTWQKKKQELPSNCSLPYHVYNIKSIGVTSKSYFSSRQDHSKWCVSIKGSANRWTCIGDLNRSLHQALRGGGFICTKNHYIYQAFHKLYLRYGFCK
# B1: rat DLAD: recombinant rat DLAD, ORF encoding 356 amino acids, Myc and His-tags at the C terminus (protein, UniProt Q9QZK9 23-356, looked up)
# Deoxyribonuclease-2-beta: TPVISCINEDGKAVDWFAFYKLPRRTSRGGTGMGLDYLYLDSTMRTWSKSHHLINSSRSSLGRTLEQLYEAHNAKNDTAYLIYNDAVPASVNYSGNYGHAKGLLVWNRVQGFWLIHSIPKFPPVPEKGYEYPSSGRQYAQSGLCITLKYSQYETIDSQLLVFQPNIYSCFIPNIFRWELIHMPQMCAKSSASKIPSRRLTVLQSAQGLNFLHFAKSTFYTDDIFAAWIAQKLKVHLLVESWQRKNHELPSNCSLPYHVYNIKAIRGPLQSDFPSHHDHSKWCVSTKDSQARWTCIGDLNRSPHQALRSGGFICSKNRYIYQSFDRLVSHYASCN
# modifications: C-terminal Myc and His tags
# notes: recombinant rat DLAD, ORF encoding 356 amino acids, Myc and His-tags at the C terminus
# B2: human DLAD: recombinant human DLAD, SEQ ID NO: 3, Myc and His-tags at the C terminus (protein, listed as Homo sapiens)
# chain: MKQKMMARLLRTSFALLFLGLFGVLGAATISCRNEEGKAVDWFTFYKLPKRQNKESGETGLEYLYLDSTTRSWRKSEQLMNDTKSVLGRTLQQLYEAYASKSNNTAYLIYNDGVPKPVNYSRKYGHTKGLLLWNRVQGFWLIHSIPQFPPIPEEGYDYPPTGRRNGQSGICITFKYNQYEAIDSQLLVCNPNVYSCSIPATFHQELIHMPQLCTRASSSEIPGRLLTTLQSAQGQKFLHFAKSDSFLDGIFAAWMAQRLKTHLLTETWQRKRQELPSNCSLPYHVYNIKAIKLSRHSYFSSYQDHAKWCISQKGTKNRWTCIGDLNRSPHQAFRSGGFICTQNWQIYQAFQGLVLYYESCK
# modifications: C-terminal Myc and His tags
# B3: DLAD: novel acid DNase cleaving DNA independently from divalent cations; mouse, amino acid Nos. 1 to 332 of SEQ ID NO: 1 (protein, listed as Mus musculus)
# chain: MTAKPLRTVLSLLFFALSGVLGTPEISCRNEYGEAVDWFIFYKLPKRTSKASEEAGLQYLYLDSTRQTWNKSLYLINSTRSALGRTLQHLYDTHNSTNDTAYLIYNDGVPGSVNYSRQYGHAKGLLVWNRTQGFWLIHSVPKFPPVHGYEYPTSGRRYGQTGICITFGYSQFEEIDFQLLVLQPNIYSCFIPSTFHWKLIYMPRMCANSSSLKIPVRYLAELHSAQGLNFVHFAKSSFYTDDIFTGWIAQKLKTHLLAQTWQKKKQELPSNCSLPYHVYNIKSIGVTSKSYFSSRQDHSKWCVSIKGSANRWTCIGDLNRSLHQALRGGGFI
# What was measured:
# DLAD [1] = target: T1, DLAD; experiment: Divalent cation-dependency of DLAD activity (chelators); format: biochemical; settings: 1 mM chelator; pH 5.2 and pH 7.2; supercoiled plasmid
# Protocol: (§1) In the same manner as in (2) of Example 3, HeLa S3 cells (5×10^6) were transfected with 25 μg of pcmDLAD-Myc-His or pcmDNaseII-Myc-His, individually. These plasmids encode the mature proteins of DLAD and DNase II, respectively, wherein Myc and His-tags are added to their C termini. After incubation of the cells for 48 hr, recombinant DLAD and recombinant DNase II were purified by IMAC using Ni-NTA spin column, in the same manner as in (2) of Example 3. […]
# (§2) In the following experiments, the assay for DNase activity was performed as below, unless otherwise described. […] After ethidium bromide staining, the image was scanned with CCD camera (Atto) under UV transillumination and optical density of the band corresponding to the full length substrate DNA was quantified by densitometry (NIH image 1.60). DNase activity was determined using reduction of the band intensity corresponding to the full length substrate DNA as an index. […]
# Using a supercoiled plasmid as a substrate, DLAD activities in the presence and absence of a divalent cation chelator were determined under acidic (50 mM Mes-NaOH, pH 5.2) and neutral (50 mM Mops-NaOH, pH 7.2) conditions, respectively. […]
# DLAD [2] = target: T1, DLAD; experiment: Sensitivity of DLAD DNase activity against inhibitors; format: biochemical; settings: standard conditions: pH 5.2, 45° C., 20 min, plasmid DNA substrate; read-out: IC50, inhibition of DLAD activity
# Protocol: In the same manner as in (2) of Example 3, HeLa S3 cells (5×10^6) were transfected with 25 μg of pcmDLAD-Myc-His or pcmDNaseII-Myc-His, individually. These plasmids encode the mature proteins of DLAD and DNase II, respectively, wherein Myc and His-tags are added to their C termini. After incubation of the cells for 48 hr, recombinant DLAD and recombinant DNase II were purified by IMAC using Ni-NTA spin column, in the same manner as in (2) of Example 3. The purified DLAD (or DNase II), which was eluted in 300 μl of elution buffer [50 mM sodium phosphate (pH 8.0) containing 250 mM imidazole and 300 mM NaCl], was dialyzed against 20 mM Mes-NaOH containing 1 mM 2-mercaptoethanol and used in the following assay for enzyme activities. The Sample obtained by treating HeLa S3 cells transfected with empty vector in the same manner was used as a control.
# In the following experiments, the assay for DNase activity was performed as below, unless otherwise described. 20 μl of reaction mixture [50 mM Mes-NaOH (pH 5.2), 1 mM 2-mercaptoethanol, 1 unit of enzyme, 500 ng supercoiled or EcoR I-digested linear pBLUESCRIPT KS+ phagemid vector] was prepared on ice and incubated at 45° C. for 20 min. The reaction was terminated with phenol/chloroform and 5 μl aliquot of the reaction mixture was subjected to 1% agarose gel electrophoresis. After ethidium bromide staining, the image was scanned with CCD camera (Atto) under UV transillumination and optical density of the band corresponding to the full length substrate DNA was quantified by densitometry (NIH image 1.60). DNase activity was determined using reduction of the band intensity corresponding to the full length substrate DNA as an index. In the present invention, 1 unit of DLAD and DNase II activities are defined as their amounts required to decrease the band intensity corresponding to 200 ng of the full length substrate DNA under the above-mentioned reaction conditions.
# DLAD activities were determined in the presence of various concentrations of DNase inhibitors [MgCl2 (FIG. 2A, ◯), MgSO4 (FIG. 2A, ●), aurintricarboxylic acid (FIG. 2B), G-actin (FIG. 2C), CoCl2 (FIG. 2D, ▪), NiCl2 (FIG. 2D, Δ) and ZnCl2 (FIG. 2D, ●)] under the above-mentioned standard conditions to analyze its sensitivity against the inhibitors. […] In contrast, it is known that there are little differences between these three divalent metal ions in inhibitory effect on DNase II [J. Biochem., 87: 1097-1103 (1980)].
# [3] = Characterization of recombinant rat and human DLAD; format: biochemical; settings: recombinant protein from HeLa S3 cells
# Excerpt: Using the same strategy as in Example 1, a rat EST clone (GenBank AF178974) encoding the amino acid sequence with homology to the deduced amino acid sequence of human DNase II was identified. Oligonucleotide primers were synthesized based on the nucleotide sequence of this clone, followed by the RACE with liver poly A(+) RNA derived from Wister rat, which is connately pigment-deficient (albino), as a template to clone the full length rat DLAD cDNA. From the sequence analysis by a conventional method, it was deduced that this cDNA contains an ORF encoding 356 amino acids with a signal peptide consisting of 22 amino acids at the N terminus. […] An expression vector encoding rat DLAD with Myc and His-tags at the C terminus (prDLAD-Myc-His) was constructed by the same strategy as in (1) of Example 3. HeLa S3 cells were transfected with this vector to generate a recombinant rat DLAD.
# (sequence complementary to the nucleotide sequence of the nucleotide Nos. 973 to 999 of the nucleotide sequence shown in Sequence Listing, SEQ ID NO: 4) were synthesized and, further using the above-mentioned linker primer AP1 together with these primers, RACE was performed with human liver-derived poly A(+) RNA as a template to clone the full length human DLAD cDNA. […]
# supercoiled plasmid = experiment: Active pH range and optimal pH of DNase activity; format: biochemical; settings: Mes-NaOH; pH 4.0 to 7.6 examined
# Protocol: as §1, §2
# Using a supercoiled plasmid as a substrate, DLAD and DNase II activities were determined under the above-mentioned standard conditions except varying kinds of buffers and pH [i.e., acetate-NaOH (pH 4.0 and 4.4), Mes-NaOH (pH 4.8, 5.2, 5.6, 6.0 and 6.4) and Mops-NaOH (pH 6.4, 6.8, 7.2 and 7.6)]. […]
# [4] = test system: supercoiled p[…]+ phagemid vector; experiment: Mode of DNA hydrolysis (end labeling of degraded plasmid); format: biochemical; settings: standard conditions
# Protocol: Using a supercoiled pBLUESCRIPT KS+ phagemid vector as a substrate, enzyme reaction of DLAD or DNase II was performed under the above-mentioned standard conditions. After terminating the reaction, contaminants were removed by phenol/chloroform treatment to isolate degraded plasmid DNA. The 3′ ends were labeled in 50 μl of a reaction solution consisting of 20 units of terminal deoxynucleotidyl transferase (Toyobo), 0.83 mCi/ml […], 100 mM sodium cacodylate (pH 7.2), 0.2 mM DTT and 1 mM CoCl2. The 5′ ends were labeled in 50 μl of a reaction solution consisting of 20 units of polynucleotide kinase (Toyobo), 0.83 mCi/ml [γ-^32P]ATP, 50 mM Tris-HCl (pH 8.0), 10 mM MgCl2 and 10 mM 2-mercaptoethanol. The end-labeling treatments were performed as to both DNAs with and without pretreatment with 20 units of calf intestinal alkaline phosphatase (Takara) in the presence of 50 mM Tris-HCl (pH 8.0) and 1 mM MgCl2 to remove the phosphoryl groups in the ends of DNAs, respectively. Unincorporated nucleotides were removed by ethanol precipitation. The labeled DNA was subjected to 1% agarose gel electrophoresis, transferred onto nylon membrane and analyzed with BAS 1500 image analyzer (Fuji Film). […]
# [5] = Stability in the medium for HeLa S3 cells
molecule,measurement,setting,value
O=C(O)CN(CCN(CC(=O)O)CC(=O)O)CC(=O)O [EDTA],Effect of divalent cation chelator on DLAD activity,DLAD [1],no effect
O=C(O)C1=CC(=C(c2ccc(O)c(C(=O)O)c2)c2ccc(O)c(C(=O)O)c2)C=CC1=O [Aurintricarboxylic acid],IC50,DLAD [2],0.006 mM
[Cl-].[Cl-].[Mg+2] [MgCl2],IC50,DLAD [2],13 mM
"[Cl-].[Cl-].[Zn+2] [Zn^2+, ZnCl2]",IC50,DLAD [2],0.2 mM
O=C(O)CN(CCOCCOCCN(CC(=O)O)CC(=O)O)CC(=O)O [EGTA],Effect of divalent cation chelator on DLAD activity,DLAD [1],no effect
O=S(=O)([O-])[O-].[Mg+2] [MgSO4],IC50,DLAD [2],7 mM
B1,"Properties: active pH range, divalent cation-dependency, mode of DNA cleavage, sensitivity to inhibitors",[3],properties similar to mouse DLAD
B2,"Properties: active pH range, divalent cation-dependency, mode of DNA cleavage, sensitivity to inhibitors",[3],properties similar to mouse DLAD
B3,Optimal pH of DNase activity,supercoiled plasmid,5.2
same,DNA cleavage mode (ends generated),[4],3′-P/5′-OH ends
same,Stability in the medium,[5],as stable as DNase II
